The text below walks through data of patent US4931444A, “5-lipoxygenase inhibiting 4-(4-phenyl-1-piperazinyl)phenols” (Janssen Pharmaceutica N.V., priority 1989, dated 1990).

Counter-ions that a name gives are not always drawn.

Assay [1] deals with T1, 5-lipoxygenase (Rattus norvegicus, UniProt P12527).
T1 construct: The supernatant, aliquoted and stored at -70° C., was used as the source of 5-lipoxygenase activity; endogenous in cells; host or cells: Rat basophilic leukemia (RBL) cells, 10,000×g supernatant of the sonicate (crude, not purified)
T1 sequence (P12527 1-673): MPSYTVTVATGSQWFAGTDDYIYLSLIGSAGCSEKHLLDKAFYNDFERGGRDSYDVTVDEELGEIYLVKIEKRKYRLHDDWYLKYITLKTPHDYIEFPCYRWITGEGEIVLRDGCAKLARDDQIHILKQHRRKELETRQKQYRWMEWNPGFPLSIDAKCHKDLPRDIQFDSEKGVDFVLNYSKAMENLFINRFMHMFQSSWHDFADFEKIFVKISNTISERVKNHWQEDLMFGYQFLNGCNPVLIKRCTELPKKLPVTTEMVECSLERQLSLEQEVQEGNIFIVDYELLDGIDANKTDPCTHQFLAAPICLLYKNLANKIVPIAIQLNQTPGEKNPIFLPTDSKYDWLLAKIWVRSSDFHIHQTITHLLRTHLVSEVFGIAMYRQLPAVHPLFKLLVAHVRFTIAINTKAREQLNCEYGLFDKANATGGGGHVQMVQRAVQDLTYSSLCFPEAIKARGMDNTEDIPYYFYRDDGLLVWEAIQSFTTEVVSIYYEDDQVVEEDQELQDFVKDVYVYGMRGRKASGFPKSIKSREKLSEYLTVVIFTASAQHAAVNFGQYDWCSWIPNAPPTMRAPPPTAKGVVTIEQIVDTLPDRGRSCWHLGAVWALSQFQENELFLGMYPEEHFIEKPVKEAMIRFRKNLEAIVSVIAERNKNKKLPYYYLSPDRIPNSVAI
As to the kind of experiment: Arachidonate 5-lipoxygenase inhibition in Rat Basophilic Leukemia Cells Supernatant. The conditions noted are these: Column A, 5-HPETE and LTB4 formation; for inhibition: read-out: 5-lipoxygenase inhibition in RBL cells supernatant, % inhibition. Details: dose or concentration left out as unconfirmed. The format is biochemical.

For assay [2], the system named is Dextran-induced edema formation in the ears of mice. The assay can be described thus: Inhibition of Dextran-induced edema formation in the ears of mice. The format is in vivo, male Swiss mice. The conditions noted are these: Column B, at 10 mg/kg body weight, 1 h before dextran; for inhibition in vivo at 10 mg/kg: Mus musculus, po, read-out: inhibition of Dextran-induced blueing of the ears of mice, % inhibition; for inhibition of Dextran-induced blueing of the ears of mice, % inhibition: oral. The text has this:
Inhibition of Dextran-induced edema formation in the ears of mice.
Intravenous injection of Dextran T500® (Pharmacia) and pontamine sky-blue dye into mice results in increased vascular permeability and edema formation, characterized by an intense blueing of the ears. Determination of the amount of extravasated dye is presumed to yield a quantitative measure of the 5-lipoxygenase inhibiting activity of the test compounds (Drug. Dev. Res. 8, 213-218, 1986). Unfasted male Swiss mice weighing 24-26 g were used in the experiments which were performed between 13.00 pm and 17.00 pm at an ambient temperature of 22±1° C. The mice were treated orally with a test compound of formula (I) dissolved in a volume of […] of either polyethyleneglycol (PEG 200) or hydroxypropyl cyclodextrine at doses varying between 1.25 and 40 mg per kg bodyweight. In control experiments the mice were administered an identical amount of solvent alone. One hour after treatment there was injected intravenously an isotonic saline solution containing 60 mg/ml Dextran T500® and 13 mg/ml pontamine sky-blue dye in a volume of 0.1 ml per 10 g bodyweight. One hour and forty-five minutes later the animals were sacrificed by ether and their ears were removed. Extraction and quantification of the extravasated dye were performed as described (Drug Dev. Res. 8, 213-218, 1986). The calculated percentage of inhibition of ear blueing upon administration of a compound of formula (I) at a dose of 10 mg/kg bodyweight is shown in the second column of table 12.

For `O=[N+]([O-])c1cc(F)ccc1N1CCN(c2ccc(O)cc2)CC1` [Compound 1.16, 4-[4-(4-fluoro-2-nitrophenyl)-1-piperazinyl]phenol monohydrochloride], in assay [1], the inhibition (usually the change of the read-out against control, counted positive when it falls) came to 94%.

As to `CCCCN1CCCSC1=Nc1ccc(N2CCN(c3ccc(O)cc3)CC2)cc1` [Compound 2.01], the inhibition in assay [1] came out at 90%. Besides, in assay [2], the inhibition in vivo at 10 mg/kg came out at 71%.

As to `CCN(C1=NC(C(C)C)CS1)c1ccc(N2CCN(c3ccc(O)cc3)CC2)cc1` (centres unmarked) [Compound 3.14], the inhibition in vivo at 10 mg/kg in assay [2] amounted to 74%.

For the compound `CCN1CCN(c2ccc(N3CCN(c4ccc(O)cc4)CC3)cc2)C1=O` [Compound 4.02], the inhibition in assay [1] is 84%.

On to `CCCCN1C(=O)N(c2ccc(N3CCN(c4ccc(O)cc4)CC3)cc2)CC1(C)C` [Compound 4.13], for which, in assay [1], the inhibition turned out to be 95%.

Regarding `CCCCN1C(=O)N(c2ccc(N3CCN(c4ccc(O)cc4)CC3)cc2)C(=O)C1C` (centres unmarked) [Compound 5.03], in assay [1], the inhibition is 79%. Moreover, the inhibition in vivo at 10 mg/kg in assay [2] was 72%.

Take `CC(=O)C(C)N1C(=O)N(c2ccc(N3CCN(c4ccc(O)cc4)CC3)cc2)C(=O)C1(C)C` (centres unmarked) [Compound 5.08]: the inhibition in assay [1] turned out to be 45%. In addition, the inhibition in vivo at 10 mg/kg in assay [2] stood at 76%.

On to `CC12CCCN1C(=O)N(c1ccc(N3CCN(c4ccc(O)cc4)CC3)cc1)C2=O` (centres unmarked) [Compound 5.10], for which the inhibition in assay [1] came out at 69%. The inhibition in vivo at 10 mg/kg in assay [2] came out at 75%.

As for `CN1C(=S)N(c2ccc(N3CCN(c4ccc(O)cc4)CC3)cc2)C(=O)C1(C)C` [Compound 5.12], in assay [1], the inhibition was determined as 81%. In addition, the inhibition in vivo at 10 mg/kg in assay [2] is 88%.

Take `CCN1C(=S)N(c2ccc(N3CCN(c4ccc(O)cc4)CC3)cc2)C(=O)C1(C)C` [Compound 5.13]: in assay [1], the inhibition worked out at 71%. The inhibition in vivo at 10 mg/kg in assay [2] came to 15%.

As to `CCCN1C(=O)N(c2ccc(N3CCN(c4ccc(O)cc4)CC3)cc2)C(C)(C)C1=O` [Compound 6.08], the inhibition in assay [1] was 75%. Moreover, the inhibition in vivo at 10 mg/kg in assay [2] was determined as 89%.

For `CC(C)N1C(=O)N(c2ccc(N3CCN(c4ccc(O)cc4)CC3)cc2)C(C)(C)C1=O` [Compound 6.09], the inhibition in assay [1] is 84%.

On to `CCCCN1C(=O)N(c2ccc(N3CCN(c4ccc(O)cc4)CC3)cc2)C(C)(C)C1=O` [Compound 6.10], for which, in assay [1], the inhibition is 90%. The inhibition in vivo at 10 mg/kg in assay [2] came to 93%.

For the compound `CCC(C)N1C(=O)N(c2ccc(N3CCN(c4ccc(O)cc4)CC3)cc2)C(C)(C)C1=O` (centres unmarked) [Compound 6.12], the inhibition in assay [1] turned out to be 90%. In addition, in assay [2], the inhibition in vivo at 10 mg/kg amounted to 53%.

As for `CCC(C)n1ncn(-c2ccc(N3CCN(c4ccc(O)cc4)CC3)cc2)c1=O` (centres unmarked) [Compound 7.06], in assay [1], the inhibition came to 97%.

Take `O=c1n(-c2ccc(N3CCN(c4ccc(O)cc4)CC3)cc2)cnn1CC(F)(F)F` [Compound 7.11]: the inhibition in assay [1] stood at 81%. In assay [2], the inhibition in vivo at 10 mg/kg was found to be 81%.

Consider `CC(C(=O)c1ccc(F)cc1)n1ncn(-c2ccc(N3CCN(c4ccc(O)cc4)CC3)cc2)c1=O` (centres unmarked) [Compound 7.14], for which the inhibition in assay [1] is 66%. For the same compound, the inhibition in vivo at 10 mg/kg in assay [2] came out at 70%.

Regarding `CC(C(=O)c1ccc(Cl)cc1)n1ncn(-c2ccc(N3CCN(c4ccc(O)cc4)CC3)cc2)c1=O` (centres unmarked) [Compound 7.15], in assay [1], the inhibition stood at 51%. In assay [2], the inhibition in vivo at 10 mg/kg was 97%.

For the compound `CC(C(=O)c1ccc(Br)cc1)n1ncn(-c2ccc(N3CCN(c4ccc(O)cc4)CC3)cc2)c1=O` (centres unmarked) [Compound 7.16], the inhibition in assay [1] was determined as 94%. The inhibition in vivo at 10 mg/kg in assay [2] is 91%.

With `O=C1CCCCC1n1ncn(-c2ccc(N3CCN(c4ccc(O)cc4)CC3)cc2)c1=O` (centres unmarked) [Compound 7.18], the inhibition in assay [1] came out at 67%. The inhibition in vivo at 10 mg/kg in assay [2] was 87%.

Consider `CCC(C)n1ncn(-c2ccc(N3CCN(c4ccc(O)cc4)CC3)c(Br)c2)c1=O` (centres unmarked) [Compound 7.21], for which the inhibition in assay [1] was 97%.

With `CC(C(O)c1ccc(Cl)cc1Cl)n1ncn(-c2ccc(N3CCN(c4ccc(O)cc4)CC3)cc2)c1=O` (centres unmarked) [Compound 7.22], the inhibition in assay [1] is 100%. The inhibition in vivo at 10 mg/kg in assay [2] was 94%.

As for `CC(C(O)c1ccc(Cl)cc1Cl)n1ncn(-c2ccc(N3CCN(c4ccc(O)cc4)CC3)cc2)c1=O` (centres unmarked) [Compound 7.23], the “5-lipoxygenase inhibition in RBL cells supernatant, % inhibition” value in assay [1] came out at 91%. In addition, in assay [2], the “inhibition of Dextran-induced blueing of the ears of mice, % inhibition” value worked out at 94%.

Consider `CCC(C)n1nc(C)n(-c2ccc(N3CCN(c4ccc(O)cc4)CC3)cc2)c1=O` (centres unmarked) [Compound 7.33, 2,4-dihydro-4-[4-[4-(4-hydroxyphenyl)-1-piperazinyl]phenyl]-5-methyl-2-(1-methylpropyl)-3H-1,2,4-triazol-3-one], for which the inhibition in assay [1] came to 80%. In addition, in assay [2], the inhibition in vivo at 10 mg/kg came to 87%.

Regarding `Cc1nn(CC(C)C)c(=O)n1-c1ccc(N2CCN(c3ccc(O)cc3)CC2)cc1` [Compound 7.34], the inhibition in assay [1] was 87%. Besides, the inhibition in vivo at 10 mg/kg in assay [2] is 66%.

Turning to `CC(C(O)c1ccc(Br)cc1)n1ncn(-c2ccc(N3CCN(c4ccc(O)cc4)CC3)cc2)c1=O` (centres unmarked) [Compound 7.35], the inhibition in assay [1] came to 100%. The inhibition in vivo at 10 mg/kg in assay [2] is 79%.

In the case of `CCC(C(=O)c1ccc(Br)cc1)n1ncn(-c2ccc(N3CCN(c4ccc(O)cc4)CC3)cc2)c1=O` (centres unmarked) [Compound 7.36], in assay [1], the inhibition worked out at 100%. For the same compound, the inhibition in vivo at 10 mg/kg in assay [2] worked out at 93%.

Take `CC(C(=O)c1cccc(Cl)c1)n1ncn(-c2ccc(N3CCN(c4ccc(O)cc4)CC3)cc2)c1=O` (centres unmarked) [Compound 7.37]: the inhibition in assay [1] is 100%. In addition, the inhibition in vivo at 10 mg/kg in assay [2] turned out to be 73%.

Regarding `CCC(C)n1nc(C)n(-c2ccc(N3CCN(c4ccc(O)c(C)c4)CC3)cc2)c1=O` (centres unmarked) [Compound 7.38], the inhibition in assay [1] was 100%. In addition, the inhibition in vivo at 10 mg/kg in assay [2] was 88%.

On to `CCC(C(=O)c1ccc(Cl)cc1)n1ncn(-c2ccc(N3CCN(c4ccc(O)cc4)CC3)cc2)c1=O` (centres unmarked) [Compound 7.41], for which the inhibition in vivo at 10 mg/kg in assay [2] was 82%.

For `CC(C(O)c1ccc(Br)cc1)n1ncn(-c2ccc(N3CCN(c4ccc(O)cc4)CC3)cc2)c1=O` (centres unmarked) [Compound 7.68], the “inhibition of Dextran-induced blueing of the ears of mice, % inhibition” value in assay [2] (10 mg/kg) was determined as 81%.

Take `CCC(C(O)c1ccccc1)n1ncn(-c2ccc(N3CCN(c4ccc(O)cc4)CC3)cc2)c1=O` (centres unmarked) [Compound 7.69]: the inhibition in vivo at 10 mg/kg in assay [2] was 85%.

Regarding `Cc1nn(C(C)C(O)c2ccc(Br)cc2)c(=O)n1-c1ccc(N2CCN(c3ccc(O)cc3)CC2)cc1` (centres unmarked) [Compound 7.70, 2-[2-(4-bromophenyl)-2-hydroxy-1-methylethyl]-2,4-dihydro-4-[4-[4-(4-hydroxyphenyl)-1-piperazinyl]phenyl]-5-methyl-3H-1,2,4-triazol-3-one], the inhibition in vivo at 10 mg/kg in assay [2] came out at 85%.

As for `CCCn1cnn(-c2ccc(N3CCN(c4ccc(O)cc4)CC3)cc2)c1=O` [Compound 8.05], the inhibition in assay [1] amounted to 90%.

Turning to `Cn1c(=O)n(C)c(=O)n(-c2ccc(N3CCN(c4ccc(O)cc4)CC3)cc2)c1=O` [Compound 9.05], in assay [2], the inhibition in vivo at 10 mg/kg was found to be 83%.

For `CCCn1c(=O)n(-c2ccc(N3CCN(c4ccc(O)cc4)CC3)cc2)c(=O)n(C(C)C(=O)c2ccc(Br)cc2)c1=O` (centres unmarked) [Compound 9.07], in assay [2], the inhibition in vivo at 10 mg/kg amounted to 83%.

Turning to `CCCCn1c(=O)cnn(-c2ccc(N3CCN(c4ccc(O)cc4)CC3)cc2)c1=O` [Compound 10.05, 4-butyl-2-[4-[4-(4-hydroxyphenyl)-1-piperazinyl]phenyl]-1,2,4-triazine-3,5(2H,4H)-dione], in assay [1], the inhibition came to 80%.
